According to patent US12583818B2 (DAEGU-GYEONGBUK MEDICAL INNOVATION FOUNDATION, priority 2020, dated 2026):
Where two headings read alike, the source gives them in different places.

Key:
[1] = target: T1, Pin1 (Homo sapiens, UniProt Q13526); experiment: Evaluation of Pin1 enzyme inhibitory activity (Sensolyte Green Pin1 assay kit); type: biochemical
T1 construct: purchased Anaspec
Method in brief: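 Compounds were tested at four working concentrations (100, 10, 1, 0.1 μM), mixed with Pin1 (50 μg/ml stock dilution), developer and substrate (1 μM as prepared). Fluorescence at 490/520 nm was recorded after 2 h in the dark at room temperature. Results were grouped into grades A–D by inhibiting concentration.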

[2] = tested on: MDA-MB 231 triple negative breast cancer cell line; experiment: MDA-MB 231 protein expression inhibition (Western blotting, cycline D1 vs Vinculin); type: cell-based; details: Homo sapiens, compound 10 μM, 72 hours, cycline D1 Western blot, read-out: MBA-MB-231 (amount of the protein compared to the DMSO-treated control group)
Protocol: In order to confirm the ability of the compound represented by formula 1 according to the present invention to inhibit the protein expression of MDA-MB 231 triple negative breast cancer cell line, the following experiment was performed, and the results are shown in Table 3 below.
MDA-MB-231 cells were cultured in a 5% CO2 incubator at 37° C. using RPMI medium supplemented with 10% FBS and 1% penicillin/streptomycin.
The cells were washed with PBS once a day, and then replaced with a new medium. The cells grown at the density of at least 90% 1 day before the experiment were detached using trypsin/EDTA, and then plated at the density of 100,000 per well in a 6-well plate.
On the next day of culture, the compound prepared in each example was treated at a concentration of 10 μM, and DMSO was treated at a concentration of 0.1% of the total as the control, followed by incubation for 72 hours. After 72 hours, the cells were washed twice with PBS, collected by scraping, and centrifuged at 13,000 rpm for 3 minutes to remove all the supernatant and only cells were taken.
RIPA buffer (containing 1× protease inhibitor and phosphatase inhibitor) was added to the prepared cells (80 μl/well), and the plate was shaken once every 5 minutes to disrupt the cells for a total of 15 minutes. The disrupted cells were centrifuged at 13,000 rpm for 15 minutes to collect only the supernatant protein. The obtained protein was quantified using a BCA protein quantification kit (Pierece, MA, USA), and a total of 10 μg of the protein was used for Western blotting.
The protein sample was isolated by 10% SDS-PAGE, and transferred to a PVDF membrane. Anti-human cycline D1 antibody (Cell signal) and anti-Vinculin antibody were bound to the protein sample, and the expression of the protein was measured by using an ECL reagent and LAS4000 equipment. The measurement results were quantified and generalized using ImageJ. The results are shown in Table 3 below by dividing the grades A to D according to the amount of the protein compared to the DMSO-treated control group.

[3] = tested on: A2780 cells (ovarian cancer cells); experiment: Cell viability of A2780 cells (Cell-titer Glo); type: cell-based; details: Homo sapiens, 72 h; cell viability, culture for 3 days; read-out: A2780
Protocol: In order to confirm the inhibitory effect of the compound represented by formula 1 according to the present invention on the growth of MCF7, MCF7-SP, A2780 or A2780-SP cells, the following experiment was performed, and the results are shown in Tables 4 and 5 below.
In addition, A2780 cells (ovarian cancer cells) were plated in a 96-well plate at the density of 3000 viable cells per well, and cultured in RPMI-1640 medium supplemented with 10% FBS and 1% penicillin/streptomycin.
On the next day of culture, the cells were treated with the compound of Examples 57, and 69 to 144, followed by culture for 3 days. Cell viability was evaluated by Cell-titer Glo (Promega, WC, USA), and luciferase activity was detected using a Tecan plate reader (Biocompare, USA).

[4] = tested on: A2780-SP cells (ovarian cancer stem cells); experiment: Sphere cell viability of A2780-SP cells (Cell-titer Glo); type: cell-based
Method in brief: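 A2780-SP ovarian cancer stem cells grown as spheres in ultra-low-attachment wells (1,500 cells/well) in neurobasal stem-cell medium with bFGF, EGF, B27. Compound added the day after plating, re-dosed on day 4, 8-day culture total; viability by CellTiter-Glo luminescence.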

[5] = concentration at which the Pin1 enzyme activity is inhibited, 2 hours at room temperature, fluorescence 490 nm/520 nm, read-out: Pin 1 inhibition
[6] = Table 2, read-out: concentration at which Pin1 inhibitory activity was exhibited
[7] = 192 h, sphere cell viability, culture for 8 days, read-out: A2780-SP
[8] = Table 5, read-out: the concentration (second list of b710, cell line not named; matches A2780-SP column)

T1 sequence (Q13526 whole entry): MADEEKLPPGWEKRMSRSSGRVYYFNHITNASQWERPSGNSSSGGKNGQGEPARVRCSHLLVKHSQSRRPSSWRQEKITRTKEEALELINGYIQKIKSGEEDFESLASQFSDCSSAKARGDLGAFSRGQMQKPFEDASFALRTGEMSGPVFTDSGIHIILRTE

SMILES | IC50 [1, 5] | IC50 [1, 6] | IC50 [3] | IC50 [4, 7] | IC50 [4, 8] | activity at 10 µM [2]
CN(C)CCCOc1ccc(S(=O)(=O)NCCCc2c[nH]c3ccccc23)cc1 [Example 22, N-(3-(1H-indol-3-yl)propyl)-4-(3-(dimethylamino)propoxy)benzenesulfonamide] | 10000 to 100000 nM |  |  |  |  | 70 to 100%
CCN(CC)CCCOc1ccc(S(=O)(=O)NCCCc2c[nH]c3ccccc23)cc1 [Example 35, N-(3-(1H-indol-3-yl)propyl)-4-(3-(diethylamino)propoxy)benzenesulfonamide] | 10000 to 100000 nM |  |  |  |  | 0 to 35%
O=C1CCCN1CCCOc1ccc(S(=O)(=O)NCCCc2c[nH]c3ccccc23)cc1 [Example 44, N-(3-(1H-indol-3-yl)propyl)-4-(3-(2-oxopyrrolidin-1-yl)propoxy)benzenesulfonamide] | > 100000 nM |  |  |  |  | 70 to 100%
CN1CCC(CCOc2ccc(S(=O)(=O)NCCCc3c[nH]c4ccccc34)cc2)CC1 [Example 55, N-(3-(1H-indol-3-yl)propyl)-4-(2-(1-methylpiperidin-4-yl)ethoxy)benzenesulfonamide] | 10000 to 100000 nM |  |  |  |  | 70 to 100%
CN1CCN(CCCOc2ccc(S(=O)(=O)N3CCC(c4c[nH]c5ccccc45)CC3)cc2)CC1 [Example 57, 3-(1-((4-(3-(4-methylpiperazin-1-yl)propoxy)phenyl)sulfonyl)piperidin-4-yl)-1H-indole] | 10000 to 100000 nM |  |  |  |  | 70 to 100%
Cc1[nH]c2ccccc2c1CCCNS(=O)(=O)c1ccc(OCCCN2CCN(C)CC2)cc1 [Example 58, N-(3-(2-methyl-1H-indol-3-yl)propyl)-4-(3-(4-methylpiperazin-1-yl)propoxy)benzenesulfonamide] | 1000 to 10000 nM |  |  |  |  | 70 to 100%
CN1CCC(CCCOc2ccc(S(=O)(=O)NCCCc3c[nH]c4ccccc34)cc2)CC1 [Example 60, N-(3-(1H-indol-3-yl)propyl)-4-(3-(1-methylpiperidin-4-yl)propoxy)benzenesulfonamide] | 1000 to 10000 nM |  |  |  |  | 50 to 70%
O=S(=O)(NCCCc1c[nH]c2ccc(Cl)cc12)c1ccc(OCCCN2CCC(Cl)CC2)cc1 [Example 78, N-(3-(5-chloro-1H-indol-3-yl)propyl)-4-(3-(4-chloropiperidin-1-yl)propoxy)benzenesulfonamide] | 1000 to 10000 nM |  |  |  |  | 0 to 35%
O=S(=O)(NCCCc1c[nH]c2ccc(Cl)cc12)c1ccc(OCCCN2CCC(F)CC2)cc1 [Example 80, N-(3-(5-chloro-1H-indol-3-yl)propyl)-4-(3-(4-fluoropiperidin-1-yl)propoxy)benzenesulfonamide] | 1000 to 10000 nM |  |  |  |  | 35 to 50%
O=S(=O)(NCCCc1c[nH]c2ccc(Cl)cc12)c1ccc(OCCCN2CCC(C(F)(F)F)CC2)cc1 [Example 81, N-(3-(5-chloro-1H-indol-3-yl)propyl)-4-(3-(4-(trifluoromethyl)piperidin-1-yl)propoxy)benzenesulfonamide] | 1000 to 10000 nM |  |  |  |  | 0 to 35%
O=S(=O)(NCCCc1c[nH]c2ccc(Cl)cc12)c1ccc(OCCCN2CCC(F)(F)CC2)cc1 [Example 82, N-(3-(5-chloro-1H-indol-3-yl)propyl)-4-(3-(4,4-difluoropiperidin-1-yl)propoxy)benzenesulfonamide] | 1000 to 10000 nM |  |  |  |  | 70 to 100%

Now from value to molecule, other results behind:

IC50 [1, 5] | IC50 [1, 6] | IC50 [3] | IC50 [4, 7] | IC50 [4, 8] | SMILES | activity at 10 µM [2]
1000 to 10000 nM |  |  |  |  | CN1CCN(CCCOc2ccc(S(=O)(=O)NCCCc3c[nH]c4ccccc34)cc2)CC1 [Example 31, N-(3-(1H-indol-3-yl)propyl)-4-(3-(4-methylpiperazin-1-yl)propoxy)benzenesulfonamide] | 50 to 70%
1000 to 10000 nM |  |  |  |  | CCN1CCN(CCCOc2ccc(S(=O)(=O)NCCCc3c[nH]c4ccccc34)cc2)CC1 [Example 36, N-(3-(1H-indol-3-yl)propyl)-4-(3-(4-ethylpiperazin-1-yl)propoxy)benzenesulfonamide] | 70 to 100%
1000 to 10000 nM |  |  |  |  | O=S(=O)(NCCCc1c[nH]c2ccccc12)c1ccc(OCCCN2CCNCC2)cc1 [Example 45, N-(3-(1H-indol-3-yl)propyl)-4-(3-(piperazin-1-yl)propoxy)benzenesulfonamide] | 70 to 100%
< 1000 nM | < 1000 nM |  |  |  | CN1CCN(CCCOc2ccc(S(=O)(=O)NCCCc3c[nH]c4ccc(Cl)cc34)c3ccccc23)CC1 [Example 86, N-(3-(5-chloro-1H-indole-3-yl)propyl)-4-(3-(4-methylpiperazine-1-yl)propoxy)naphthalene-1-sulfonamide] | 70 to 100%
< 1000 nM | < 1000 nM | > 10000 nM | < 1000 nM | < 1000 nM | O=S(=O)(NCCCc1c[nH]c2cc(Cl)c(Cl)cc12)c1ccc(OCCCN2CCNCC2)cc1 [Example 183, N-(3-(5,6-dichloro-1H-indol-3-yl)propyl)-4-(3-(piperazin-1-yl)propoxy)benzenesulfonamide] | 
< 1000 nM | < 1000 nM | > 10000 nM | < 1000 nM | < 1000 nM | CN1CCN(CCCOc2ccc(S(=O)(=O)NCCCc3c[nH]c4cc(Cl)c(Cl)cc34)cc2)CC1 [Example 184, N-(3-(5,6-dichloro-1H-indol-3-yl)propyl)-4-(3-(4-methylpiperazin-1-yl)propoxy)benzenesulfonamide] | 
< 1000 nM | < 1000 nM | > 10000 nM | > 10000 nM |  | O=S(=O)(NCCCc1c[nH]c2ccc(Cl)cc12)c1ccc(CCCOc2ccncc2)cc1 [Example 185, N-(3-(5-chloro-1H-indole-3-yl)propyl)-4-(3-(pyridine-4-yloxy)propyl)benzenesulfonamide] | 
< 1000 nM | < 1000 nM | > 10000 nM | < 1000 nM | < 1000 nM | CN1CCN(CCCc2ccc(S(=O)(=O)NCCCc3c[nH]c4ccc(Cl)cc34)cc2)CC1 [Example 186, N-(3-(5-chloro-1H-indol-3-yl)propyl)-4-(3-(4-methylpiperazin-1-yl)propyl)benzenesulfonamide] | 
< 1000 nM | < 1000 nM | > 10000 nM | < 1000 nM | < 1000 nM | CN1CCN(CCCOc2ccc(S(=O)(=O)NCC3CCc4[nH]c5ccc(F)cc5c4C3)cc2)CC1 (stereo not shown) [Example 187, N-((6-fluoro-2,3,4,9-tetrahydro-1H-carbazol-3-yl)methyl)-4-(3-(4-methylpiperazin-1-yl)propoxy)benzenesulfonamide] | 
< 1000 nM | < 1000 nM | > 10000 nM | < 1000 nM | < 1000 nM | O=S(=O)(NCC1CCc2[nH]c3ccc(F)cc3c2C1)c1ccc(OCCCN2CCNCC2)cc1 (stereo not shown) [Example 188, N-((6-fluoro-2,3,4,9-tetrahydro-1H-carbazol-3-yl)methyl)-4-(3-(piperazin-1-yl)propoxy)benzenesulfonamide] | 
< 1000 nM | < 1000 nM | > 10000 nM | < 1000 nM | < 1000 nM | CN1CCN(CCCOc2ccc(S(=O)(=O)NCC3CCc4[nH]c5ccccc5c4C3)cc2)CC1 (stereo not shown) [Example 189, 4-(3-(4-methylpiperazin-1-yl)propoxy)-N-((2,3,4,9-tetrahydro-1H-carbazol-3-yl)methyl)benzenesulfonamide] | 
< 1000 nM | < 1000 nM | > 10000 nM | < 1000 nM | < 1000 nM | O=S(=O)(NCC1CCc2[nH]c3ccccc3c2C1)c1ccc(OCCCN2CCNCC2)cc1 (stereo not shown) [Example 190, 4-(3-(piperazin-1-yl)propoxy)-N-((2,3,4,9-tetrahydro-1H-carbazol-3-yl)methyl)benzenesulfonamide] | 
